Values after ≈ are worked out from the molar mass of the structure shown. Like-named read-outs stand apart in the source and are kept apart here.
Tested on: Clostridium perfringens
Test: microbe, parasite or virus in culture
Type: cell-based
[1] = Clostridium perfringens, read-out: MIC value against Clostridium perfringens, strain A3-1 (A-type)
[2] = Clostridium perfringens, read-out: MIC value against Clostridium perfringens, strain A3-2 (A-type)
[3] = Clostridium perfringens, read-out: MIC value against Clostridium perfringens, strain A57-1 (A-type)
[4] = Clostridium perfringens, read-out: MIC value against Clostridium perfringens, strain B4 (B-type)
[5] = Clostridium perfringens, read-out: MIC value against Clostridium perfringens, strain B5 (B-type)
[6] = Clostridium perfringens, read-out: MIC value against Clostridium perfringens, strain C3 (C-type)
[7] = Clostridium perfringens, read-out: MIC value against Clostridium perfringens, strain C8 (C-type)
[8] = Clostridium perfringens, read-out: MIC value against Clostridium perfringens, strain C59-1 (C-type)
[9] = Clostridium perfringens, read-out: MIC value against Clostridium perfringens, strain D14B (D-type)
[10] = Clostridium perfringens, read-out: MIC value against Clostridium perfringens, strain F5-2 (F-type)
[11] = Clostridium perfringens, read-out: MIC value against Clostridium perfringens, strain F6-1 (F-type)
[12] = Clostridium perfringens, read-out: MIC value against Clostridium perfringens, strain F6-2 (F-type)
[13] = Clostridium perfringens, read-out: MIC value against Clostridium perfringens, strain F6-2-1 (F-type)
[14] = Clostridium perfringens, read-out: MIC value against Clostridium perfringens, strain F6-2-2 (F-type)
[15] = Clostridium perfringens, read-out: MIC value against Clostridium perfringens, strain F7-1 (F-type)
[16] = Clostridium perfringens, read-out: MIC value against Clostridium perfringens, strain F8-1 (F-type)
[17] = Clostridium perfringens, read-out: MIC value against Clostridium perfringens, strain H12-1 (H-type)
[18] = Clostridium perfringens, read-out: MIC value against Clostridium perfringens, strain H12-2 (H-type)
[19] = Clostridium perfringens, read-out: MIC value against Clostridium perfringens, strain H13-1 (H-type)
[20] = Clostridium perfringens, read-out: MIC value against Clostridium perfringens, strain H14-1 (H-type)
[21] = Clostridium perfringens, read-out: MIC value against Clostridium perfringens, strain H14-2 (H-type)
[22] = Clostridium perfringens, read-out: MIC value against Clostridium perfringens, strain H14-4 (H-type)
[23] = Clostridium perfringens, read-out: MIC value against Clostridium perfringens, strain H15-1 (H-type)
[24] = Clostridium perfringens, read-out: MIC value against Clostridium perfringens, strain H15-2 (H-type)
[25] = Clostridium perfringens, read-out: MIC value against Clostridium perfringens, strain H15-3 (H-type)
[26] = Clostridium perfringens, read-out: MIC value against Clostridium perfringens, strain H16 (H-type)

In the case of C=C[C@]1(C)C[C@@H](OC(=O)CSCCN(CC)CC)[C@]2(C)[C@H](C)CC[C@]3(CCC(=O)[C@H]32)[C@@H](C)[C@@H]1O [TIA, Tiamulin], the MIC90 (Clostridium perfringens) is reported as 8 µg/mL (≈ 16.2 µM), the MIC50 (Clostridium perfringens (n=26), unit as printed for tiamulin) is reported as 0.5 µg/mL (≈ 1.01 µM) and the MIC [1] is reported as 0.5 µg/mL (≈ 1.01 µM). It also gave an MIC [2] of 0.5 µg/mL (≈ 1.01 µM), an MIC [3] of 4 µg/mL (≈ 8.1 µM) and an MIC [4] of 4 µg/mL (≈ 8.1 µM). For the same compound, the MIC [5] was 0.5 µg/mL (≈ 1.01 µM), the MIC [6] was 8 µg/mL (≈ 16.2 µM) and the MIC [7] was 0.5 µg/mL (≈ 1.01 µM). The MIC [8] was no more than 0.25 µg/mL, the MIC [9] was 8 µg/mL (≈ 16.2 µM) and the MIC [10] was 0.5 µg/mL (≈ 1.01 µM). For the same compound, the MIC [11] was 0.5 µg/mL (≈ 1.01 µM), the MIC [12] was 0.5 µg/mL (≈ 1.01 µM) and the MIC [13] was 0.5 µg/mL (≈ 1.01 µM). For the same compound, the MIC [14] was 0.5 µg/mL (≈ 1.01 µM), the MIC [15] was 4 µg/mL (≈ 8.1 µM) and the MIC [16] was 4 µg/mL (≈ 8.1 µM). It also gave an MIC [17] of 0.5 µg/mL (≈ 1.01 µM), an MIC [18] of no more than 0.25 µg/mL and an MIC [19] of 4 µg/mL (≈ 8.1 µM). For the same compound, the MIC [20] was 8 µg/mL (≈ 16.2 µM), the MIC [21] was 8 µg/mL (≈ 16.2 µM) and the MIC [22] was 4 µg/mL (≈ 8.1 µM). It also gave an MIC [23] of no more than 0.25 µg/mL, an MIC [24] of 4 µg/mL (≈ 8.1 µM) and an MIC [25] of 4 µg/mL (≈ 8.1 µM). For the same compound, the MIC [26] was 4 µg/mL (≈ 8.1 µM).

With CC[C@H]1OC(=O)C[C@@H](O)[C@H](C)[C@@H](O[C@@H]2O[C@H](C)[C@@H](O)[C@H](N(C)C)[C@H]2O)[C@@H](CCN2C[C@H](C)C[C@H](C)C2)C[C@@H](C)C(=O)/C=C/C(C)=C/[C@@H]1CO[C@@H]1O[C@H](C)[C@@H](O)[C@@H](OC)[C@H]1OC [TMS, Tilmicosin] the MIC50 (Clostridium perfringens) was 128 µg/mL (≈ 147 µM), the MIC90 (Clostridium perfringens) was greater than 128 µg/mL and the MIC [1] was 4 µg/mL (≈ 4.6 µM). The MIC [2] was 2 µg/mL (≈ 2.3 µM), the MIC [3] was 4 µg/mL (≈ 4.6 µM) and the MIC [4] was greater than 128 µg/mL. The MIC [5] was greater than 128 µg/mL, the MIC [6] was greater than 128 µg/mL and the MIC [7] was greater than 128 µg/mL. For the same compound, the MIC [8] was 2 µg/mL (≈ 2.3 µM), the MIC [9] was 128 µg/mL (≈ 147 µM) and the MIC [10] was 128 µg/mL (≈ 147 µM). It also gave an MIC [11] of 128 µg/mL (≈ 147 µM), an MIC [12] of 128 µg/mL (≈ 147 µM) and an MIC [13] greater than 128 µg/mL. For the same compound, the MIC [14] was 128 µg/mL (≈ 147 µM), the MIC [15] was 64 µg/mL (≈ 73.6 µM) and the MIC [16] was 128 µg/mL (≈ 147 µM). For the same compound, the MIC [17] was 4 µg/mL (≈ 4.6 µM), the MIC [18] was 4 µg/mL (≈ 4.6 µM) and the MIC [19] was 4 µg/mL (≈ 4.6 µM). It also gave an MIC [20] of 128 µg/mL (≈ 147 µM), an MIC [21] of 128 µg/mL (≈ 147 µM) and an MIC [22] of 128 µg/mL (≈ 147 µM). It also gave an MIC [23] of 4 µg/mL (≈ 4.6 µM), an MIC [24] of 128 µg/mL (≈ 147 µM) and an MIC [25] of 4 µg/mL (≈ 4.6 µM). It also gave an MIC [26] of 128 µg/mL (≈ 147 µM).

For Penicillin, the “MIC value against Clostridium perfringens” value (“MIC value” for short) (strain A3-1 (A-type)) was 0.25 µg/mL, the “MIC value” value (strain A3-2 (A-type)) was 0.5 µg/mL and the “MIC value” value (strain A57-1 (A-type)) was 0.25 µg/mL. The “MIC value” value (strain B4 (B-type)) was 0.5 µg/mL, the “MIC value” value (strain B5 (B-type)) was 0.5 µg/mL and the “MIC value” value (strain C3 (C-type)) was 2 µg/mL. For the same compound, the “MIC value” value (strain C8 (C-type)) was 0.25 µg/mL, the “MIC value” value (strain C59-1 (C-type)) was 0.125 µg/mL and the “MIC value” value (strain D14B (D-type)) was 0.5 µg/mL. For the same compound, the “MIC value” value (strain F5-2 (F-type)) was 0.125 µg/mL, the “MIC value” value (strain F6-1 (F-type)) was 0.25 µg/mL and the “MIC value” value (strain F6-2 (F-type)) was 0.125 µg/mL. For the same compound, the “MIC value” value (strain F6-2-1 (F-type)) was 0.25 µg/mL, the “MIC value” value (strain F6-2-2 (F-type)) was 0.25 µg/mL and the “MIC value” value (strain F7-1 (F-type)) was 0.5 µg/mL. The “MIC value” value (strain F8-1 (F-type)) was 0.25 µg/mL, the “MIC value” value (strain H12-1 (H-type)) was 0.25 µg/mL and the “MIC value” value (strain H12-2 (H-type)) was 0.125 µg/mL. The “MIC value” value (strain H13-1 (H-type)) was 0.0625 µg/mL, the “MIC value” value (strain H14-1 (H-type)) was 0.25 µg/mL and the “MIC value” value (strain H14-2 (H-type)) was 1 µg/mL. The “MIC value” value (strain H14-4 (H-type)) was 0.125 µg/mL, the “MIC value” value (strain H15-1 (H-type)) was 0.25 µg/mL and the “MIC value” value (strain H15-2 (H-type)) was 0.25 µg/mL. For the same compound, the “MIC value” value (strain H15-3 (H-type)) was 0.25 µg/mL and the “MIC value” value (strain H16 (H-type)) was 0.125 µg/mL.
